Experimental data reported in patent US20210401867A1, “PHOTOSENSITIZERS AND METHOD OF TREATING CANCER USING THE SAME” (Cheng-Wen Wu, priority 2018, published 2021).

Columns and labels:
Type in all cases: cell-based, human
[1] = system: FaDu cells; test: in vitro cell viability of FaDu cells; details: for synergy of combination with RS2000 versus RS2000 alone: conventional X-ray RS2000, FaDu cells
[2] = system: FaDu cells; test: colony forming assay of FaDu cells
Experimental: (§1) In the following examples, FaDu cells are used in cell viability tests and colony forming assays. FaDu cells (ATCC HTB-43) is a human head-and-neck cell line with squamous phenotype. FaDu cells used in the following examples are cultured in DMEM medium supplemented with 10% fetal bovine serum (FBS) and 1% penicillin/streptomycin, in a humidified incubator maintained at 37° C. and 5% CO2.
Referring to FIGS. 9A-C, an in vitro cell viability chart of FaDu cells when treated with BrdU alone, NR alone, and BrdU and NR, is provided in accordance with an exemplary embodiment of the present disclosure. NR treatments in FIGS. 9A, 9B, and 9C are similar with the experiment procedures for FIG. 6. In samples where FaDu cells are treated with BrdU and NR, FaDu cells are incubated with BrdU for 24 hours before irradiated with NR. Referring to FIG. 9B, a colony forming assay result of FaDu cells after the treatments described in […], is provided in accordance with an exemplary embodiment of the present disclosure. The colony forming assay in FIG. 9B are proceeded as following: FaDu cells treated by different regimens are grouped and seeded in 6-well-plates with 1000 cells in each of the well and cultured for 14 days; the culture medium was replaced every 3 to 4 days; in the end of the experiment, the cells are washed twice with PBS and fixed with 4% paraformaldehyde for 15 minutes and stained with 0.1% crystal violet. Referring to FIG. 9C, a quantitative result of the colony forming assay in FIG. 9B is provided in accordance with an exemplary embodiment of the present disclosure. In FIG. 9C, the results of the colony forming assay are quantified by microscopic examination by stereomicroscope.

[3] = system: FaDu cells; test: flow cytometry analysis of BrdU/IdU DNA incorporation in FaDu cells; details: 24 hours
Experimental: Referring to FIG. 7A, a flow cytometry analysis of FaDu cells without BrdU treatment is provided in accordance with an exemplary embodiment of the present disclosure. FaDu cells are analyzed by flow cytometry using BrdU Flow Kits (BD Pharmingen), in absence of BrdU. FaDu cells are trypsinized, washed, fixed, permeablized, blocked, and then treated with DNase I (5 U/10^6 cells/100 μL) for 1 hour at 37° C. FaDu cells are then hybridized with anti-BrdU antibodies for 1 hour at room temperature. After several washes, FaDu cells are analyzed for fluorescent signals with LSR II Analytic Flow Cytometer (BD Biosciences). […] Referring to FIGS. 7B-D, flow cytometry analyses of FaDu cells when treated with BrdU are provided in accordance with an exemplary embodiment of the present disclosure. In FIGS. 7B-D, FaDu cells are analyzed by flow cytometry with the same experiment procedures for FIG. 7A. FaDu cells in FIGS. 7B, 7C, and 7D are respectively treated with 0.5 μM BrdU, 1 μM BrdU, and 10 μM BrdU for 24 hours. […] The DNA incorporation efficiency of BrdU is 1 μM to more than 90% of FaDu cells, therefore 1 μM would be used in the subsequent experiment as an optimized dosage of BrdU. Referring to FIG. 8A, a flow cytometry analysis of FaDu cells without IdU treatment is provided in accordance with an exemplary embodiment of the present disclosure. FaDu cells are analyzed by flow cytometry using BrdU Flow Kits (BD Pharmingen), in absence of IdU. FaDu cells are treated with similar experiment procedures as in FIG. 7A, but anti-BrdU antibodies are replaced with anti-IdU antibodies. For the detection of IdU-incorporated cells, FaDu cells being treated by anti-IdU antibodies are then hybridized with a secondary antibody conjugated by proper fluorescent dye for 1 hour at room temperature. […] Referring to FIGS. 8B-D, flow cytometry analyses of FaDu cells when treated with IdU are provided in accordance with an exemplary embodiment of the present disclosure. FaDu cells are analyzed by flow cytometry with similar experiment procedures as in 7A. […] The DNA incorporation efficiency of IdU is 10 μM to more than 90% of FaDu cells, therefore 10 μM would be used in the subsequent experiment as an optimized dosage of IdU.

[4] = system: FaDu cells; test: in vitro cell viability of FaDu cells
Experimental: as §1
Referring to FIG. 4, an in vitro cell viability chart of FaDu cells when treated with BrdU is provided in accordance with an exemplary embodiment of the present disclosure. FaDu cells are treated with different dosages of BrdU for 24 hours and then FaDu cells are analyzed daily for cell viability. FaDu cells are derived from pharynx squamous cell carcinoma of human, and are resistant to radiation. 3×10^5 FaDu cells are seeded in 6-cm-plates. After 24 hours, different dosages of BrdU are added into the culture medium and incubated with the FaDu cells for another 24 hours.
Referring to FIG. 5, an in vitro cell viability chart of FaDu cells when treated with IdU is provided in accordance with an exemplary embodiment of the present disclosure. FaDu cells are treated with different dosages of IdU for 24 hours and then FaDu cells are analyzed for cell viability. FaDu cells are seeded in plate and treated with IdU by similar experiment procedures with FIG. 4.
Referring to FIG. 6, an in vitro viability chart of FaDu cells when irradiated by NR is provided in accordance with an exemplary embodiment of the present disclosure. FaDu cells are treated with different radiation doses of NanoRay radiation (NR). FaDu cells are trypsinized and collected by centrifugation. The centrifuged FaDu cells are then re-suspended in PBS in a 1.5-ml tube with 5×10^4 cells in 20 μL. The tube containing centrifuged FaDu cells are then subjected to different radiation doses of NR. […] From FIGS. 4, 5 and 6, it is concluded that an optimized dosage for BrdU and IdU for in vivo experiments would be 10 μM, and the optimized radiation dose for NR is within 4 Gy.

[5] = 10 μM IdU combined with 1 Gy of 33 keV NR

| SMILES | cell viability ([1]; 1 μM BrdU and 1Gy of RS2000 (conventional X-ray)) | synergy of combination with RS2000 versus RS2000 alone [1] | colony forming inhibition ([2]; 1 μM BrdU combined with 1 Gy of 14 keV NR) [%] | FaDu cells labeled ([3]; 0.5 μM BrdU) | FaDu cells labeled ([3]; more than 1 μM of BrdU) | cytotoxicity of the combination with NR [4] | toxicity ([4]; FaDu cells, 1 μM BrdU) | colony forming inhibition versus IdU or NR alone [2, 5] | FaDu cells labeled ([3]; IdU 0.5 μM as printed (FIG. 8B)) | FaDu cells labeled ([3]; more than 10 μM of IdU) | cell viability versus IdU or NR alone [4, 5] |
| --- | --- | --- | --- | --- | --- | --- | --- | --- | --- | --- | --- |
| O=c1[nH]c(=O)n([C@H]2C[C@H](O)[C@@H](CO)O2)cc1Br [BrdU, bromodeoxyuridine] | lower cell viability | does not have synergistic effects | 57.5 | about 83% | more than 90% | strong synergistic cytotoxicity | almost no toxicity | – | – | – | – |
| O=c1[nH]c(=O)n([C@H]2C[C@H](O)[C@@H](CO)O2)cc1I [IdU, iododeoxyuridine] | – | does not have synergistic effects | – | – | – | strong synergistic cytotoxicity | – | higher | about 84% | more than 90% | lower |
